Results from patent US6476008B1, “Use of diphosphonic acids or the physiologically acceptable salts or esters thereof in the preventive treatment of after-effects resulting from enlargement or replacement of the bladder” (Roche Diagnostics GmbH, priority 1997, dated 2002).

Tests used:
[1] = system: female Sprague-Dawley rats augmented with excluded sigma; assay: Prevention of osteopenia after bladder augmentation plasty, bone density by DEXA; format: in vivo, rat; conditions: daily s.c. ibandronic acid up to 20 μg P/kg, 4 months, monthly DEXA
From the text: Preventive effect of diphosphonates before the occurrence of osteopenia after augmentation plasty. Groups of 12 female Sprague-Dawley rats (6-8 week old, about […] body weight) were provided with stomach and ileum augmentation plasties and 12 animals were dummy-operated. At the same time, 24 animals were augmented with excluded sigma and divided at random into two groups, one group daily receiving a subcutaneous application of 0.9% NaCl (control) and the other group a daily subcutaneous application of ibandronic acid in the form of an aqueous solution in a dose up to 20 μg P/kg. The operative configuration of the augmentation plasties was after Lauvetz et al (J. Urol. 154: 899-902, 1995). The test period was 4 months, corresponding to about 4 years of human life (E. Grimm, Amer. J. Dig Dis. 7: 17-20, 1962).

[2] = system: rats with chronic kidney insufficiency and augmentation using gastrointestinal segments; assay: Chronic kidney insufficiency plus augmentation plasty, bone mass; format: in vivo, rat; conditions: rats with CNI (5/6 nephrectomy) and augmentation plasty, ibandronate administration
From the text: In order to increase the clinical relevance of the results, the test procedure of Example 2 was repeated on rats with chronic kidney insufficiency. This test arrangement is based on a frequent situation among human beings in which a bladder previously damaged by an existing disturbance in urine transport (reflux or obstruction) leads to kidney insufficiency as a secondary result. It is known that kidney insufficiency in itself results in a disturbance in bone mineralisation (renal osteopathy), so that the need for a bladder extension plasty using segments of intestine further increases the risk of disturbed mineralisation. Kidney insufficiency was induced by 5/6 nephrectomy (compare Example 2). The other test procedure was as in Example 1.

Question: How did the “reduction in bone mass (DEXA bone density, lumbar vertebrae)” value [1] turn out when CCCCCN(C)CCC(O)(P(=O)(O)O)P(=O)(O)O [ibandronate, 1-hydroxy-3-(N-methyl-N-pentyl)aminopropylidene-1,1-diphosphonic acid] was run?
Answer: no reduction in bone mass

Question: And the “reduction in bone mass” value [2]?
Answer: reduction in bone mass was prevented
